In ChEMBL document CHEMBL2029281, “An improved microwave assisted one-pot synthesis, and biological investigations of some novel aryldiazenyl chromeno fused pyrrolidines” (2012):
≈ marks a conversion by molar mass, not a printed value.

Tests used:
[1] = system: Salmonella typhi; experiment: Antibacterial activity against Salmonella typhi MTCC 98 by macrobroth dilution assay; format: functional, Salmonella enterica subsp. enterica serovar Typhi; settings: Salmonella enterica
[2] = system: Escherichia coli; experiment: Antibacterial activity against Escherichia coli MTCC 443 by macrobroth dilution assay; format: functional
[3] = system: Aspergillus fumigatus; experiment: Antifungal activity against Aspergillus fumigatus MTCC 3008 by macrobroth dilution assay; format: functional
[4] = system: Streptococcus pneumoniae; experiment: Antibacterial activity against Streptococcus pneumoniae MTCC 1936 by macrobroth dilution assay; format: functional
[5] = system: Clostridium tetani; experiment: Antibacterial activity against Clostridium tetani MTCC 449 by macrobroth dilution assay; format: functional
[6] = system: Candida albicans; experiment: Antifungal activity against Candida albicans MTCC 227 by macrobroth dilution assay; format: functional
[7] = system: Mycobacterium tuberculosis; experiment: Growth inhibition of Mycobacterium tuberculosis H37Rv at 250 ug/mL; format: functional; settings: read-out: GI
[8] = system: Vibrio cholerae; experiment: Antibacterial activity against Vibrio cholerae MTCC 3906 by macrobroth dilution assay; format: functional
[9] = system: Bacillus subtilis; experiment: Antibacterial activity against Bacillus subtilis MTCC 441 by macrobroth dilution assay; format: functional
[10] = system: Mycobacterium tuberculosis; experiment: Growth inhibition of Mycobacterium tuberculosis H37Rv at 0.2 ug/mL; format: functional; settings: read-out: GI
[11] = system: Mycobacterium tuberculosis; experiment: Growth inhibition of Mycobacterium tuberculosis H37Rv at >[…]; format: functional

| Molecule | MIC [1] [µg/mL] | MIC [2] [µg/mL] | MIC [3] [µg/mL] | MIC [4] [µg/mL] | MIC [5] [µg/mL] | MIC [6] [µg/mL] | inhibition of growth at 250 µg/mL [7] [%] | MIC [8] [µg/mL] | MIC [9] [µg/mL] | inhibition of growth at 0.2 µg/mL [10] [%] | growth inhibition (GI) [11] [%] |
| --- | --- | --- | --- | --- | --- | --- | --- | --- | --- | --- | --- |
| CCN1[C@@H](C(=O)OC)C[C@@H]2COc3ccc(/N=N/c4ccccc4)cc3[C@@H]21 | > 250 | 200 (≈ 547 µM) | > 250 | 200 (≈ 547 µM) | > 250 | > 250 | 55 | > 250 | 200 (≈ 547 µM) | – | – |
| CCCCOC(=O)[C@H]1C[C@@H]2COc3ccc(/N=N/c4ccccc4)cc3[C@@H]2N1C | 250 (≈ 635 µM) | 250 (≈ 635 µM) | > 250 | 250 (≈ 635 µM) | 100 (≈ 254 µM) | > 250 | 25 | 200 (≈ 508 µM) | 50 (≈ 127 µM) | – | – |
| O=C(O)c1cn(C2CC2)c2cc(N3CCNCC3)c(F)cc2c1=O [CIPROFLOXACIN] | 25 (≈ 75.4 µM) | 25 (≈ 75.4 µM) | – | 50 (≈ 151 µM) | – | – | – | 25 (≈ 75.4 µM) | – | – | – |
| NNC(=O)c1ccncc1 [ISONIAZID] | – | – | – | – | – | – | – | – | – | 99 | – |
| CCCOC(=O)[C@H]1C[C@@H]2COc3ccc(/N=N/c4ccccc4)cc3[C@@H]2N1C | 250 (≈ 659 µM) | 250 (≈ 659 µM) | > 250 | 250 (≈ 659 µM) | > 250 | > 250 | 41 | 250 (≈ 659 µM) | 250 (≈ 659 µM) | – | – |
| O=C(N[C@H](CO)[C@H](O)c1ccc([N+](=O)[O-])cc1)C(Cl)Cl [CHLORAMPHENICOL] | 50 (≈ 155 µM) | 50 (≈ 155 µM) | – | 50 (≈ 155 µM) | 50 (≈ 155 µM) | – | – | 50 (≈ 155 µM) | 50 (≈ 155 µM) | – | – |
| CCCCOC(=O)[C@H]1C[C@@H]2COc3ccc(/N=N/c4ccccc4)cc3[C@@H]2N1CC | 100 (≈ 245 µM) | 200 (≈ 491 µM) | > 250 | > 250 | 250 (≈ 613 µM) | 200 (≈ 491 µM) | 68 | > 250 | 100 (≈ 245 µM) | – | – |
| COC(=O)[C@H]1C[C@@H]2COc3ccc(/N=N/c4ccccc4)cc3[C@@H]2N1Cc1ccccc1 | 250 (≈ 585 µM) | 125 (≈ 292 µM) | > 250 | 250 (≈ 585 µM) | 200 (≈ 468 µM) | 200 (≈ 468 µM) | 87 | > 250 | 250 (≈ 585 µM) | – | – |
| NYSTATIN | – | – | 100 | – | – | 100 | – | – | – | – | – |
| COC1=CC(=O)C[C@@H](C)[C@]12Oc1c(Cl)c(OC)cc(OC)c1C2=O [GRISEOFULVIN] | – | – | 100 (≈ 283 µM) | – | – | 500 (≈ 1420 µM) | – | – | – | – | – |
| Cc1ncc([N+](=O)[O-])n1CCO [METRONIDAZOLE] | – | – | – | – | – | – | – | – | – | – | 99 |
| COC(=O)[C@H]1C[C@@H]2COc3ccc(/N=N/c4ccccc4)cc3[C@@H]2N1C | 200 (≈ 569 µM) | 200 (≈ 569 µM) | > 250 | 125 (≈ 356 µM) | > 250 | 250 (≈ 711 µM) | 72 | 100 (≈ 285 µM) | 125 (≈ 356 µM) | – | – |
| CCn1cc(C(=O)O)c(=O)c2cc(F)c(N3CCNCC3)cc21 [NORFLOXACIN] | 10 (≈ 31.3 µM) | 10 (≈ 31.3 µM) | – | 10 (≈ 31.3 µM) | 50 (≈ 157 µM) | – | – | 10 (≈ 31.3 µM) | 100 (≈ 313 µM) | – | – |
| CC1(C)S[C@@H]2[C@H](NC(=O)[C@H](N)c3ccccc3)C(=O)N2[C@H]1C(=O)O [AMPICILLIN] | 100 (≈ 286 µM) | 100 (≈ 286 µM) | – | 100 (≈ 286 µM) | 250 (≈ 715 µM) | – | – | 100 (≈ 286 µM) | 250 (≈ 715 µM) | – | – |
| CCOC(=O)[C@H]1C[C@@H]2COc3ccc(/N=N/c4ccccc4)cc3[C@@H]2N1C | 50 (≈ 137 µM) | 50 (≈ 137 µM) | > 250 | 250 (≈ 684 µM) | 200 (≈ 547 µM) | > 250 | 64 | 125 (≈ 342 µM) | > 250 | – | – |
| CCCOC(=O)[C@H]1C[C@@H]2COc3ccc(/N=N/c4ccccc4)cc3[C@@H]2N1CC | 100 (≈ 254 µM) | 50 (≈ 127 µM) | > 250 | > 250 | 200 (≈ 508 µM) | > 250 | 95 | 100 (≈ 254 µM) | 200 (≈ 508 µM) | – | – |
| CCOC(=O)[C@H]1C[C@@H]2COc3ccc(/N=N/c4ccccc4)cc3[C@@H]2N1CC | 250 (≈ 659 µM) | > 250 | 250 (≈ 659 µM) | 100 (≈ 264 µM) | 250 (≈ 659 µM) | > 250 | 98 | 250 (≈ 659 µM) | > 250 | – | – |
| CCCCOC(=O)[C@H]1C[C@@H]2COc3ccc(/N=N/c4ccccc4)cc3[C@@H]2N1Cc1ccccc1 | 100 (≈ 213 µM) | 200 (≈ 426 µM) | > 250 | 25 (≈ 53.2 µM) | > 250 | > 250 | 90 | 250 (≈ 532 µM) | 250 (≈ 532 µM) | – | – |
| CCOC(=O)[C@H]1C[C@@H]2COc3ccc(/N=N/c4ccccc4)cc3[C@@H]2N1Cc1ccccc1 | > 250 | > 250 | > 250 | 250 (≈ 566 µM) | 200 (≈ 453 µM) | > 250 | 20 | 200 (≈ 453 µM) | 250 (≈ 566 µM) | – | – |
| CCCOC(=O)[C@H]1C[C@@H]2COc3ccc(/N=N/c4ccccc4)cc3[C@@H]2N1Cc1ccccc1 | 250 (≈ 549 µM) | 250 (≈ 549 µM) | > 250 | 200 (≈ 439 µM) | 250 (≈ 549 µM) | 250 (≈ 549 µM) | 84 | 100 (≈ 220 µM) | 250 (≈ 549 µM) | – | – |
